Experimental data as given in article PMC8070004, “Isorhamnetin Ameliorates Dry Eye Disease via CFTR Activation in Mice” (International Journal of Molecular Sciences, 2021).

Tests used:
CFTR = target: T1, CFTR (Mus musculus, UniProt P26361); experiment: Open-circuit ocular surface potential difference (PD) in CD-1 mice; type: in vivo; conditions: 20 μM CFTRinh-172
T1 construct: from tissue; host or cells: ocular surface of anesthetized CD-1 mice (in vivo)

CD-1 mice = experiment: Tear volume by phenol red thread tear test in normal CD-1 mice; type: in vivo, mouse; conditions: isorhamnetin 30 µM with CFTRinh-172 20 µM
Method: Tear volume was measured using phenol red threads (Zone-Quick, Oasis Medical, Glendora, CA, USA) by placing them in the lateral canthi of normal CD-1 or dry eye model-treated BL6 mice for 10 s using forceps. Tear volume was measured using a Vernier caliper as the length of thread wetting under a microscope. For normal CD-1 mice, serial measurements were done to evaluate compound pharmacodynamics compared to the vehicle after topical application of a single, 2.5-μL drop of compound formulations containing 20 μM forskolin, 30 μM isorhamnetin, or 20 μM CFTRinh-172 in PBS with 0.1% DMSO.

WT-CFTR = WT-CFTR (Homo sapiens, UniProt P13569); experiment: Whole-cell patch clamp in CHO-K1 cells expressing WT-CFTR; type: cell-based; set-up: expressed in transfected cells; host or cells: CHO-K1; conditions: 10 μM CFTRinh-172
Method: Whole-cell, patch clamp recordings were performed on CFTR-expressing CHO cells. The bath solution contained (in mM) 140 NMDG-Cl, 1 CaCl2, 1 MgCl2, 10 glucose, and 10 HEPES (pH 7.4). The pipette solution contained (in mM) 130 CsCl, 0.5 EGTA, 1 MgCl2, 1 Tris-ATP, and 10 HEPES (pH 7.2). […] Seal resistances were between 3 and 10 GΩ. After establishing the whole-cell configuration, CFTR was activated by forskolin and/or isorhamnetin. […] Recordings were made at room temperature using an Axopatch-200B (Axon Instruments, San Jose, CA, USA). Currents were digitized with a Digidata 1440A converter (Axon Instruments), filtered at 5 kHz, and sampled at 1 kHz.

[1] = test system: corneal epithelial (CorE) cells; experiment: MTS cell viability assay in CorE cells; type: cell-based, human; conditions: 48 h; isorhamnetin 30 μM, Triton X-100 0.01%
Method: (§1) Immortalized human CorE [47] and immortalized human ConjE (Innoprot, Bizkaia, Spain) cells were plated on 96-well microplates. After 24 h incubation, cells were treated with 30 μM isorhamnetin or 0.01% Triton X-100 and then they were incubated for two days. An equal amount of DMSO was added to the control. The culture medium and the compounds were changed every 12 h. To assess cell proliferation, after 48 h of incubation with the compound, the cells were reincubated with MTS for 1 h. The soluble formazan produced by cellular reduction of MTS was quantified by measuring the absorbance at 490 nm with Infinite M200 (Tecan, Grödig, Austria) microplate reader. MTS assay was done using CellTiter 96 AQueous One Solution Cell Proliferation Assay kit (Promega, Madison, WI, USA).

[2] = test system: conjunctival epithelial (ConjE) cells; experiment: MTS cell viability assay in ConjE cells; type: cell-based, human; conditions: 48 h; isorhamnetin 30 μM, Triton X-100 0.01%
Method: as §1

T1 sequence (P26361 whole entry): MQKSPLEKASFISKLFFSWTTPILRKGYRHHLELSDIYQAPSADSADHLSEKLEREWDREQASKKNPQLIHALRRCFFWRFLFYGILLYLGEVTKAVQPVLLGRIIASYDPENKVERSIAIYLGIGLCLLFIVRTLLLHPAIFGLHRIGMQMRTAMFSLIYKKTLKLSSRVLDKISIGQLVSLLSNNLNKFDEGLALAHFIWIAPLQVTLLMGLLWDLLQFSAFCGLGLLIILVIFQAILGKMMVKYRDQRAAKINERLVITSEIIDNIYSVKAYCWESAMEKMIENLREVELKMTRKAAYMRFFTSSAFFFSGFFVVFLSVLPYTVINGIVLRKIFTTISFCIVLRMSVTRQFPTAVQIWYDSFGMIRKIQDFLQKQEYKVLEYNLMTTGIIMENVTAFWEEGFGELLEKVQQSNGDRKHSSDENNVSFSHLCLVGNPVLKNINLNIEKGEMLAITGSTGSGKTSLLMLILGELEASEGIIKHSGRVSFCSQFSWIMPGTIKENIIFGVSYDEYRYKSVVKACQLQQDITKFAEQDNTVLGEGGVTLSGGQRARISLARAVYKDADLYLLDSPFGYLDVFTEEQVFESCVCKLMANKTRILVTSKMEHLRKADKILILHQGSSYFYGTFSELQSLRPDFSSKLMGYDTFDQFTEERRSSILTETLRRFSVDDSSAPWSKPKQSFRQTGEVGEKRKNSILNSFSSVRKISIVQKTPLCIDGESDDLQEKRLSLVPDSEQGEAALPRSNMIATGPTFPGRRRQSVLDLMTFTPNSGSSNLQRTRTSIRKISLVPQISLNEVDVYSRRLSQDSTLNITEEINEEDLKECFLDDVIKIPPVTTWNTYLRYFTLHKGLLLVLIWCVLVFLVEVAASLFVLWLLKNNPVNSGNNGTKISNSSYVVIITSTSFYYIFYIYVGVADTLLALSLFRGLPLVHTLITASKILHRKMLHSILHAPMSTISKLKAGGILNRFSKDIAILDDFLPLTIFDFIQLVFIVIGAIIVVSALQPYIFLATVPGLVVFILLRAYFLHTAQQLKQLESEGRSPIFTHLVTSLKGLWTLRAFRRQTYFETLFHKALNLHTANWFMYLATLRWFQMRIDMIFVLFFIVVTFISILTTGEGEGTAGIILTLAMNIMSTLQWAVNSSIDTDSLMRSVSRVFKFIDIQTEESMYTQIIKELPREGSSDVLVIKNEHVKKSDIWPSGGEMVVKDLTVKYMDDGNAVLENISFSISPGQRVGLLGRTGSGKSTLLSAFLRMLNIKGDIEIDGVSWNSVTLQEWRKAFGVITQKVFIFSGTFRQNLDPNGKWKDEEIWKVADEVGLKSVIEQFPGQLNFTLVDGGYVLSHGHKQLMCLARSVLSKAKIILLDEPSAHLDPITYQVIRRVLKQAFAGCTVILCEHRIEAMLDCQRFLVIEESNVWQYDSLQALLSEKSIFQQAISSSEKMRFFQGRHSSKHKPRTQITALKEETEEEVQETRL
WT-CFTR, sequence (P13569 whole entry): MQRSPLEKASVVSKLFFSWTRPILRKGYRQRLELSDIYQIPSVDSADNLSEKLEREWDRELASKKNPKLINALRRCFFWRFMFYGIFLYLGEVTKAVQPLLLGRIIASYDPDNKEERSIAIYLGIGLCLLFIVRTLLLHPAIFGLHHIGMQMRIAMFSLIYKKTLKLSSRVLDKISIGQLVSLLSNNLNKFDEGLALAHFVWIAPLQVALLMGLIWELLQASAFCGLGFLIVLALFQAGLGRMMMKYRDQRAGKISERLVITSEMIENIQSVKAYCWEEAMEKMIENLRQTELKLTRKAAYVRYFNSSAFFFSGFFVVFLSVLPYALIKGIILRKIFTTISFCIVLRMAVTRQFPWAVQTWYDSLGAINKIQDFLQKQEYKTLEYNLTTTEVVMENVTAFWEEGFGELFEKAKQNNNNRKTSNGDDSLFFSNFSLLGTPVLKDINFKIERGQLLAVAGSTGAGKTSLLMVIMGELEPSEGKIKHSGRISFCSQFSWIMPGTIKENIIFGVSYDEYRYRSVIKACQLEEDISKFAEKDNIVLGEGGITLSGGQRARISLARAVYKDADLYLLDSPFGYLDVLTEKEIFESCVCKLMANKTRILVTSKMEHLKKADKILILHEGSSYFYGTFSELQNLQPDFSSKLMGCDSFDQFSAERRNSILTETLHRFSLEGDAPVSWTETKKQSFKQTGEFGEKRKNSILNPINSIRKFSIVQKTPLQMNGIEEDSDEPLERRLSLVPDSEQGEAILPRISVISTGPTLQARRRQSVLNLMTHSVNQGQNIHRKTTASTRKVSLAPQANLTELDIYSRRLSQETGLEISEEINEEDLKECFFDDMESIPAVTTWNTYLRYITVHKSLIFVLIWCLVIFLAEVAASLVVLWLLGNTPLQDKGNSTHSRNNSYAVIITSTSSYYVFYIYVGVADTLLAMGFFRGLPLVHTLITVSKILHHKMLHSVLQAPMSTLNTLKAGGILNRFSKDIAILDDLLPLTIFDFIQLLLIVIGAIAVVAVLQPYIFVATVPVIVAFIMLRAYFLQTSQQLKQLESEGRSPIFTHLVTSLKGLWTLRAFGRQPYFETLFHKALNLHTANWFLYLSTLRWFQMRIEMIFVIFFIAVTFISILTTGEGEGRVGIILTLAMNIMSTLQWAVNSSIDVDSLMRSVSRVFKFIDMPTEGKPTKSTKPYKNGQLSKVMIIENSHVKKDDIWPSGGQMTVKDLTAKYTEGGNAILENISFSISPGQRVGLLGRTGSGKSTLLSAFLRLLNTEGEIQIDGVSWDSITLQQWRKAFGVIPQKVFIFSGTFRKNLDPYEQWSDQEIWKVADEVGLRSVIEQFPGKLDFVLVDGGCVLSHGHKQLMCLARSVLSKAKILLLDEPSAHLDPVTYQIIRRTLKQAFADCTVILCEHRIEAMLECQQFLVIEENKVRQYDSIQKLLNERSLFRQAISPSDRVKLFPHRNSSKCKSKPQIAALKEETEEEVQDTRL

Molecule | isorhamnetin-induced hyperpolarization of ocular PD (CFTR) | isorhamnetin-increased tear volume (CD-1 mice) | block of isorhamnetin-induced CFTR Cl- currents (whole-cell) (WT-CFTR) | cell viability (MTS), CorE cells [1] | cell viability (MTS), ConjE cells [2]
O=C(O)c1ccc(/C=C2\SC(=S)N(c3cccc(C(F)(F)F)c3)C2=O)cc1 [CFTRinh-172, reference compound] | inhibited | completely suppressed | almost completely blocked |  | 
Triton X-100 [reference compound] |  |  |  | markedly decreased cell viability | markedly decreased cell viability
